Literature values in patent US9555001B2, “Pharmaceutical composition and uses thereof” (Boehringer Ingelheim International GmbH, priority 2012, dated 2017).

Settings: crystalline form described in WO 2006/117359

- physico-chemical stability: physico-chemically stable
- solubility: good solubility properties
Structure (SMILES): OC[C@H]1O[C@@H](c2ccc(Cl)c(Cc3ccc(O[C@H]4CCOC4)cc3)c2)[C@H](O)[C@@H](O)[C@@H]1O [Compound “A”, 1-chloro-4-(β-D-glucopyranos-1-yl)-2-[4-((S)-tetrahydrofuran-3-yloxy)-benzyl]-benzene]
